Patent publication US20180311505A1, “METHODS FOR TREATING CANCER BY ENHANCING INTRATUMORAL IMMUNE RESPONSE” (THE GENERAL HOSPITAL CORPORATION, priority 2015, published 2018)

System: parental melanoma
Assay: Immune infiltrates (immunofluorescence, flow cytometry) in parental melanomas and draining lymph nodes
Assay type: in vivo, mouse
Experimental: Immunohistochemical analyses. Mouse tumors were collected 5 days after treatment initiation and formalin-fixed paraffin-embedded (FFPE). Slides were baked for 60 minutes in a 60° C. oven and loaded into the Bond III™ staining platform. Slides were antigen retrieved in Bond™ Epitope Retrieval 1 for 30 minutes at 100° C. then incubated with CD3 (Abcam™, ab16669) at 1:150 diluted in Bond™ Primary Antibody diluent for 30 minutes at room temperature. Primary antibody was detected using Bond™ Polymer Refine Detection kit, slides were developed in DAB, then dehydrated and coverslipped. For each of 3 samples per group, 3 random 20× magnification fields were chosen at the tumor center for quantification. The open-source CellProfiler™ cell image analysis software3 was used to quantify positively stained cells in each image. The analysis pipeline utilized the UnmixColors module to separate each image into one of the Hematoxylin stain and one of the DAB stain. The EnhanceOrSuppressFeatures module was applied to the DAB image to enhance cellular features. Finally, the IdentifyPrimaryObjects module was used to count the number of cells present in the enhanced image.
Immunofluorescence analyses. […]
Flow cytometry. […] Flow cytometry data were acquired on the BD™ LSRII flow cytometer and analyzed using FlowJo™ software (Tree Star™).

CC(C)Cn1cnc2c(N)nc3ccccc3c21 [imiquimod]
PD-L2 expression on CD11c+ dendritic cells (draining lymph nodes, parental melanoma-bearing mice): reduced | granzyme B+ fraction of CD8+ TILs (parental melanomas, imiquimod alone or with anti-PD-1 or aFP): expanded
